Experimental data reported in ChEMBL document CHEMBL1139441, “Design, synthesis, molecular modeling studies, and calpain inhibitory activity of novel alpha-ketoamides incorporating polar residues at the P1'-position” (J Med Chem, 2004).

target: T1, Calpain-1 catalytic subunit (Sus scrofa, UniProt P35750); assay: Binding affinity against porcine erythrocyte calpain I was determined
T1 sequence (P35750 whole entry): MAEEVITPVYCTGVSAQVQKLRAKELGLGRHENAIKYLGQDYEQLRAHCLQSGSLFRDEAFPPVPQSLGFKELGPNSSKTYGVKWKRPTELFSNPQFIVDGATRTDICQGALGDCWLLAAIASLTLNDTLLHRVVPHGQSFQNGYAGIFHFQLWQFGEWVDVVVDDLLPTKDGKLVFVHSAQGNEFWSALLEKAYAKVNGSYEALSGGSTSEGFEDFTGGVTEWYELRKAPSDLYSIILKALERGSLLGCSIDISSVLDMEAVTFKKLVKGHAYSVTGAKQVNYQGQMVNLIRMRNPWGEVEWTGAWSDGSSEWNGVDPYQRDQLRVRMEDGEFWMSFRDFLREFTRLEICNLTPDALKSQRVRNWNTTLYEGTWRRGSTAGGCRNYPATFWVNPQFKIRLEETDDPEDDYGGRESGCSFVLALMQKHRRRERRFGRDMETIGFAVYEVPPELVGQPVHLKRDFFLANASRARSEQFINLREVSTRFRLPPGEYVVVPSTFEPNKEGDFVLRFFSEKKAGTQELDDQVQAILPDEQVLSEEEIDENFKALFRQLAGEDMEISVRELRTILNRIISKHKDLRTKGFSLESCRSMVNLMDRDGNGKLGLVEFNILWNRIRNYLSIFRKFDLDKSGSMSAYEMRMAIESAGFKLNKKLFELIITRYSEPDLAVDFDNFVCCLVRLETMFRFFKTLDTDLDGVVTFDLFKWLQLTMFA

SMILES	Ki
CC(C)CC(NC(=O)OCc1ccccc1)C(=O)N[C@@H](Cc1ccccc1)C(=O)C(=O)N[C@H](Cc1ccccc1)C(=O)O (stereo partly specified)	> 430000 nM
CC(C)CC(NC(=O)OCc1ccccc1)C(=O)N[C@@H](Cc1ccccc1)C(=O)C(=O)N[C@@H](Cc1ccccc1)C(=O)O (stereo partly specified)	830 nM
COC(=O)[C@@H](Cc1ccccc1)NC(=O)C(=O)[C@H](Cc1ccccc1)NC(=O)C(CC(C)C)NC(=O)OCc1ccccc1 (stereo partly specified)	940 nM

Continued by falling Ki, values first:

Ki	SMILES
680 nM	COC(=O)[C@H](Cc1ccccc1)NC(=O)C(=O)[C@H](Cc1ccccc1)NC(=O)C(CC(C)C)NC(=O)OCc1ccccc1 (stereo partly specified)
54 nM	CC(C)CC(NC(=O)OCc1ccccc1)C(=O)N[C@@H](Cc1ccccc1)C(=O)C(=O)NCCc1ccccc1 (stereo partly specified)
4.7 nM	CC(C)CC(NC(=O)OCc1ccccc1)C(=O)N[C@@H](Cc1ccccc1)C(=O)C(=O)NNCc1ccccc1 (stereo partly specified)
